Data on 16 compounds can be found in patent US10774083B2, “Heterocyclic amide compound” (TAKEDA PHARMACEUTICAL COMPANY LIMITED, priority 2016, dated 2020).

For experiment [1], the target named is T1, human PRS protein (His-Avi-hEPRS (998-1512)) (Homo sapiens, UniProt P07814).
T1 construct: to construct His-Avi-hEPRS (998-1512) expression plasmid; His tag (N); Avi tag (N); TEV cleavage site (ENLYFQG, then S; inferred from the forward primer hEPRS-TEV-NheF) (N); made in house; host or cells: E. coli BL21(DE3)
T1 sequence (P07814 998-1512 limits assumed): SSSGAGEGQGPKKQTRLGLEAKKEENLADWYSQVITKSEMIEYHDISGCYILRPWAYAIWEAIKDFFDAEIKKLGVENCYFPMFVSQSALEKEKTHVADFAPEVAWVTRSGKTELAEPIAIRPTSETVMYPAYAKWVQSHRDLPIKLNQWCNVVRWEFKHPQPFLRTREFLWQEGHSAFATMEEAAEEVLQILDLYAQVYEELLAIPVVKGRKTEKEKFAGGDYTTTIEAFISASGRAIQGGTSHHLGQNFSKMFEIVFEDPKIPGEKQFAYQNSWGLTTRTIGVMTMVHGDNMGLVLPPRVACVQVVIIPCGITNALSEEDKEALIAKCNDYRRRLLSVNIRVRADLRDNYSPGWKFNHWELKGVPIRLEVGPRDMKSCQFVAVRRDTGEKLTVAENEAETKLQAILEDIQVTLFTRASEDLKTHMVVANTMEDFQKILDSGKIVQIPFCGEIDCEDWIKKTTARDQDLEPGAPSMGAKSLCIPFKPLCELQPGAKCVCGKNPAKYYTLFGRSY
Put plainly: PRS inhibitory activity ([32P]pyrophosphate exchange enzyme assay). It is filed as biochemical. To be noted: 300 nM test compound; read-out: inhibitory rate (%) of PRS. Here is the method: The PRS inhibitory activity of the compounds of the present invention was evaluated by the following method.
An expression plasmid of Catalytic Domain of human EPRS was obtained by PCR using human skeletal muscle cDNA Library (Takara Bio Inc.) as a template and 2 kinds of Primers 5′-[…]-3′ (hEPRS-TEV-NheF) (SEQ ID NO: 1) and 5′-[…]-3′ (hEPRS-St-Not-R) (SEQ ID NO: 2). PCR was performed using PrimeStar GXL DNA Polymerase (Takara Bio Inc.) and included (1) 98° C., 1 min, (2) 35 cycles of 98° C., 10 sec, 65° C., 10 sec, 72° C., 1 min, and (3) reaction at 72° C., 1 min. This was cleaved with Nhe I and Not I (Takara Bio Inc.) and inserted using Ligation High (TOYOBO CO., LTD.) into the Nhe I/Not I site of pET21a (Novagen) with His-Avitag inserted thereinto. This was introduced into ECOS JM109 (NIPPON GENE CO., LTD.) to construct His-Avi-hEPRS (998-1512) expression plasmid.
Recombinant human PRS protein was prepared by transforming the His-Avi-hEPRS (998-1512) expression plasmid prepared above into ECOS Competent E. coli BL21(DE3) (NIPPON GENE CO., LTD.). Escherichia coli obtained by transformation was inoculated into 300 mL of LB medium (1% peptone, 0.5% yeast extract, 0.5% sodium chloride, 0.01% ampicillin) and cultured at 30° C. for 16 hr. The obtained culture medium was transferred into a jar culture tank charged with 6 L of the main fermentation medium (0.3% potassium dihydrogen phosphate, 0.6% disodium hydrogen phosphate, 0.1% ammonium chloride, 0.05% sodium chloride, 0.024% magnesium sulfate, 0.02% NEWPOL LB-625, 1.5% sorbitol, 1.5% casamino acid, 0.5% yeast extract, 0.01% ampicillin) and culturing was started at 37° C., quantity of airflow 5 L/min, stirring rotating speed 400 rpm. At the time point when the turbidity of the culture medium reached about 550 Klett units, the culture temperature was lowered to 16° C., isopropyl-β-D-thiogalactopyranoside (IPTG) was added to the final concentration 0.1 mM, and culturing was performed for another 16 hr to induce expression of human PRS. After completion of culturing, the culture medium was centrifuged at 5,000 rpm for 10 min. The obtained human PRS expressing Escherichia coli was suspended in a buffer containing 50 mM Tris-HCl (pH 8.0), 150 mM NaCl, 1 mM DTT, 5 U/ml Benzonase, 20 mM Imidazole and sonicated using Sonifier (BRANSON). The homogenate was centrifuged (33,000×G, 60 min, Beckman Coulter), the obtained supernatant was subjected to adsorption by passage through Ni-NTA Superflow (QIAGEN) column equilibrated in advance with 50 mM Tris-HCl (pH 8.0), 300 mM NaCl, 1 mM DTT, and elution was performed with a buffer containing 50 mM Tris-HCl (pH 8.0), 300 mM NaCl, 1 mM DTT, 250 mM Imidazole. Furthermore, gel filtration was performed using Superdex200 pg column equilibrated in advance with a buffer containing 50 mM Tris-HCl (pH 8.0), 150 mM NaCl, 1 mM DTT, 10% glycerol to give purified human PRS protein. The protein concentration was measured using BCA Protein Assay Kit (PIERCE) and BSA as the standard.
A test compound was dissolved in 5 μL of an assay buffer (50 mM Tris-HCl (pH 7.5), 20 mM KCl, 1 mM DTT, 0.01% Tween 20) and incubated for 60 min with 5 μL of 40 nM human PRS protein dissolved in the assay buffer containing 40 mM MgCl2. An enzyme reaction of the human PRS protein was started by adding 10 μL of a substrate solution containing 300 μM ATP, 160 μM L-Proline, 400 μM pyrophosphate, [^32P]pyrophosphate (PerkinElmer) prepared to 1 MBq/mL. After incubation at room temperature for 30 min, the reaction was discontinued by adding 50 μL of discontinuation/washing solution (1M HCl, 200 mM sodium pyrophosphate) to the reaction mixture. The reaction solution was transferred to a filter plate (Merck Millipore, Billerica, Mass.) previously added with 200 μL of charcoal solution (0.5% HCl solution containing 10% charcoal (w/v)). […]

The subject of experiment [2] is human ovarian cancer cells A2780. Put plainly: proliferation inhibitory activity against human ovarian cancer cell A2780 (CellTiter-Glo). It is filed as cell-based. To be noted: A2780, 72 h, 1 μM test compound, 3 days of culture, read-out: proliferation inhibitory rate (%) of A2780 cells. Here is the method:
The proliferation inhibitory activity of the compound of the present invention against human ovarian cancer cell A2780 was evaluated by the following method.
Human ovarian cancer cells A2780 were seeded in a 384 well culture plate at 1000 cells in 30 μL of medium per well by using RPMI-1640 medium (Wako Pure Chemical Industries, Ltd.) containing 10% fetal bovine serum and penicillin/streptomycin. The next day, 10 μL of RPMI-1640 medium containing the test compound was added to the cells. After 3 days of culture, 20 μL of CellTiter-Glo Luminescent Cell Viability Assay solution (Promega) was added. The luminescence signal was measured using EnVision (PerkinElmer) and the inhibitory rate (%) of the test compound was calculated with a well free of seeding of cell as 100% inhibition.
On the technique in general: In ATP-based viability assays light output follows the ATP content of the culture.

In the case of `Cc1cc(N2CC[C@@](C#N)(C3CC3)C2=O)cc(C(=O)NCc2cc(Cl)cc(-c3cnn(C)c3)c2)n1` [Example 216, N-(3-chloro-5-(1-methyl-1H-pyrazol-4-yl)benzyl)-4-((3S)-3-cyano-3-cyclopropyl-2-oxopyrrolidin-1-yl)-6-methylpyridine-2-carboxamide], the inhibition at 0.3 µM in experiment [1] was 101%. Besides, in experiment [2], the inhibition at 1 µM came out at 89%.
Turning to `O=C(NCc1ccccc1Cl)c1ncnc2nc(C3CCCC3)[nH]c12` [Example 1, N-(2-chlorobenzyl)-8-cyclopentyl-7H-purine-6-carboxamide], in experiment [1], the inhibition at 0.3 µM is 98%. Besides, in experiment [2], the inhibition at 1 µM was 60%.
With `Cn1cc(-c2cc(F)cc(CNC(=O)c3nccc4nc(C5CCOC5)n(C)c34)c2)cn1` (centres unmarked) [Example 117, N-(3-fluoro-5-(1-methyl-1H-pyrazol-4-yl)benzyl)-3-methyl-2-(tetrahydrofuran-3-yl)-3H-imidazo[4,5-c]pyridine-4-carboxamide], in experiment [1], the inhibition at 0.3 µM came to 100%. Moreover, in experiment [2], the inhibition at 1 µM came out at 78%.
`Cn1cc(-c2cc(F)cc(CNC(=O)c3nccc4nc(CC5CC5)[nH]c34)c2)cn1` [Example 126, 2-(cyclopropylmethyl)-N-(3-fluoro-5-(1-methyl-1H-pyrazol-4-yl)benzyl)-3H-imidazo[4,5-c]pyridine-4-carboxamide]: in experiment [1], the inhibition at 0.3 µM was determined as 98%. In addition, in experiment [2], the inhibition at 1 µM turned out to be 56%.
For the compound `Cn1cc2c(CNC(=O)c3nccc4nc(C5CCCC5)[nH]c34)cccc2n1` [Example 94, 2-cyclopentyl-N-((2-methyl-2H-indazol-4-yl)methyl)-3H-imidazo[4,5-c]pyridine-4-carboxamide], the inhibition at 0.3 µM in experiment [1] turned out to be 97%. For the same compound, the inhibition at 1 µM in experiment [2] was found to be 64%.
In the case of `Cn1cc(-c2cc(F)cc(CNC(=O)c3ncnc4nc(C5(F)CCCC5)[nH]c34)c2)cn1` [Example 27, 8-(1-fluorocyclopentyl)-N-(3-fluoro-5-(1-methyl-1H-pyrazol-4-yl)benzyl)-7H-purine-6-carboxamide], in experiment [1], the inhibition at 0.3 µM amounted to 99%. The inhibition at 1 µM in experiment [2] was 97%.
Regarding `Cn1cc(-c2cc(F)cc(CNC(=O)c3ncnc4nc(C5CCCC5)n(C)c34)c2)ccc1=O` [Example 4, 8-cyclopentyl-N-(3-fluoro-5-(1-methyl-6-oxo-1,6-dihydropyridin-3-yl)benzyl)-7-methyl-7H-purine-6-carboxamide], the inhibition at 0.3 µM in experiment [1] worked out at 101%. In addition, the inhibition at 1 µM in experiment [2] came out at 99%.
For the compound `Cc1cc(-c2cc(F)cc(CNC(=O)c3cc(N4CC[C@@](C#N)(C5CC5)C4=O)cc(C)n3)c2)ccn1` [Example 209, 4-((3S)-3-cyano-3-cyclopropyl-2-oxopyrrolidin-1-yl)-N-(3-fluoro-5-(2-methylpyridin-4-yl)benzyl)-6-methylpyridine-2-carboxamide], in experiment [1], the inhibition at 0.3 µM stood at 100%. Further, in experiment [2], the inhibition at 1 µM was found to be 80%.
For `Cn1cc(-c2cc(F)c(F)c(CNC(=O)c3ncnc4nc(C5CCCC5)n(C)c34)c2)cn1` [Example 5, 8-cyclopentyl-N-(2,3-difluoro-5-(1-methyl-1H-pyrazol-4-yl)benzyl)-7-methyl-7H-purine-6-carboxamide] the same measures were 102% and 98%.
For `Cn1cc(-c2cc(F)cc(CNC(=O)c3ncnc4nc(C5CCCC5)n(C)c34)c2)nn1` [Example 7, 8-cyclopentyl-N-(3-fluoro-5-(1-methyl-1H-1,2,3-triazol-4-yl)benzyl)-7-methyl-7H-purine-6-carboxamide] the same measures were 102% and 95%.
As to `Cn1cc(-c2cc(F)cc(CNC(=O)c3nccc4nc(C5CCCC5)n(CCO)c34)c2)cn1` [Example 115, 2-cyclopentyl-N-(3-fluoro-5-(1-methyl-1H-pyrazol-4-yl)benzyl)-3-(2-hydroxyethyl)-3H-imidazo[4,5-c]pyridine-4-carboxamide], the inhibition at 0.3 µM in experiment [1] amounted to 101%. In addition, the inhibition at 1 µM in experiment [2] came out at 94%.
Consider `Cn1cc(-c2cc(F)cc(CNC(=O)c3nc(N)nc4nc(C5CCCC5)[nH]c34)c2)cn1` [Example 42, 2-amino-8-cyclopentyl-N-(3-fluoro-5-(1-methyl-1H-pyrazol-4-yl)benzyl)-7H-purine-6-carboxamide], for which, in experiment [1], the inhibition at 0.3 µM was 98%. In addition, in experiment [2], the inhibition at 1 µM was 59%.
Turning to `Cn1cc(-c2cc(F)cc(CNC(=O)c3ncnc4nc(C5CCCCO5)n(C)c34)c2)cn1` (centres unmarked) [Example 63, N-(3-fluoro-5-(1-methyl-1H-pyrazol-4-yl)benzyl)-7-methyl-8-(tetrahydro-2H-pyran-2-yl)-7H-purine-6-carboxamide], the inhibition at 0.3 µM in experiment [1] was 102%. Besides, in experiment [2], the inhibition at 1 µM turned out to be 98%.
As for `Cn1cc(-c2ccnc(CNC(=O)c3ncnc4nc(C5CCCC5)n(C)c34)c2)cn1` [Example 52, 8-cyclopentyl-7-methyl-N-((4-(1-methyl-1H-pyrazol-4-yl)pyridin-2-yl)methyl)-7H-purine-6-carboxamide], the inhibition at 0.3 µM in experiment [1] stood at 99%. For the same compound, in experiment [2], the inhibition at 1 µM was 69%.
For `O=C(NCc1cc(F)cc(-c2cnn(C3CC3)c2)c1)c1ncnc2nc(C3CCCC3)[nH]c12` [Example 14, 8-cyclopentyl-N-(3-(1-cyclopropyl-1H-pyrazol-4-yl)-5-fluorobenzyl)-7H-purine-6-carboxamide] the same measures were 100% and 97%.
Consider `Cn1cc(-c2cccc(CNC(=O)c3nccc4nc(C5CCCC5)[nH]c34)c2)cn1` [Example 84, 2-cyclopentyl-N-(3-(1-methyl-1H-pyrazol-4-yl)benzyl)-3H-imidazo[4,5-c]pyridine-4-carboxamide], for which the inhibition at 0.3 µM in experiment [1] was determined as 100%. Moreover, the inhibition at 1 µM in experiment [2] was found to be 97%.
